The results in this text go back to patent US20260053834A1, “COVALENT MODIFIERS OF AKT1 AND USES THEREOF” (Terremoto Biosciences, Inc., priority 2023, published 2026).

Structures are written as SMILES.

For one experiment, the target named is T1, AKT1 WT (Homo sapiens, UniProt P31749).
T1 construct: expressed in transfected cells; host or cells: HEK293
Kind of experiment: Live cell target engagement by NanoBRET competitive probe displacement, AKT1 WT. In kind it is binding. The note with it: transfected HEK293 cells, 2 h at 37° C., read-out: AKT1 WT IC50: GeoMean IC50.

The target of another experiment is T2, AKT2 (Homo sapiens, UniProt P31751).
T2 construct: expressed in transfected cells; host or cells: HEK293
Kind of experiment: Live cell target engagement by NanoBRET competitive probe displacement, AKT2. It counts as binding. As to conditions: transfected HEK293 cells, 2 h at 37° C., read-out: AKT2 IC50: GeoMean IC50. A general note: In BRET a luciferase serves as donor, and the signal depends on an acceptor being close.

Experiment [1] deals with LAPC4 prostate cancer cells, which express the AKT1 E17K allele. Kind of experiment: Antiproliferative effects in LAPC4 cells (CellTiter Glo, 72 h). In kind it is cell-based. As to conditions: Homo sapiens, LAPC4, 72 h, read-out: LAPC4 proliferation IC50: GeoMean IC50. The method in brief:
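Cells grown in IMDM with 12% FBS, seeded at 1,000 cells/well and treated with compound dilutions in DMSO for 72 h. Intracellular ATP read by luminescence. IC50 from a log(inhibitor) vs. response Hill fit.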
(In general: In ATP-based viability assays light output follows the ATP content of the culture.)

Another experiment deals with T3, AKT1 E17K (Homo sapiens, UniProt P31749, E17K).
T3 construct: expressed in transfected cells; host or cells: HEK293
Kind of experiment: Live cell target engagement by NanoBRET competitive probe displacement, AKT1 E17K. In kind it is binding. As to conditions: transfected HEK293 cells, 2 h at 37° C., read-out: AKT1 E17K IC50: GeoMean IC50.

T1 sequence (P31749 whole entry): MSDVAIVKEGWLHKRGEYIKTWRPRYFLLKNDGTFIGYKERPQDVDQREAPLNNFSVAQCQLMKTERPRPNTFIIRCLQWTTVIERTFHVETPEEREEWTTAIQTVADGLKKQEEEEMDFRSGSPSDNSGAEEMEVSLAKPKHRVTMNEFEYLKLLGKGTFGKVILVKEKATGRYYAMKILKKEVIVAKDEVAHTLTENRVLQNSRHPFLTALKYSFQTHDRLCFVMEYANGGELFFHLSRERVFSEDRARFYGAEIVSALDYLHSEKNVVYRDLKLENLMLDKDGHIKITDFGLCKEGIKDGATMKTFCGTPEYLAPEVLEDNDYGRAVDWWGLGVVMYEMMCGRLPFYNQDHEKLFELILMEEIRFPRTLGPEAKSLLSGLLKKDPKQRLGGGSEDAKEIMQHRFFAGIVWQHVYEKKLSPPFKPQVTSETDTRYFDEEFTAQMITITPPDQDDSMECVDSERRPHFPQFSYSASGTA
T2 sequence (P31751 whole entry): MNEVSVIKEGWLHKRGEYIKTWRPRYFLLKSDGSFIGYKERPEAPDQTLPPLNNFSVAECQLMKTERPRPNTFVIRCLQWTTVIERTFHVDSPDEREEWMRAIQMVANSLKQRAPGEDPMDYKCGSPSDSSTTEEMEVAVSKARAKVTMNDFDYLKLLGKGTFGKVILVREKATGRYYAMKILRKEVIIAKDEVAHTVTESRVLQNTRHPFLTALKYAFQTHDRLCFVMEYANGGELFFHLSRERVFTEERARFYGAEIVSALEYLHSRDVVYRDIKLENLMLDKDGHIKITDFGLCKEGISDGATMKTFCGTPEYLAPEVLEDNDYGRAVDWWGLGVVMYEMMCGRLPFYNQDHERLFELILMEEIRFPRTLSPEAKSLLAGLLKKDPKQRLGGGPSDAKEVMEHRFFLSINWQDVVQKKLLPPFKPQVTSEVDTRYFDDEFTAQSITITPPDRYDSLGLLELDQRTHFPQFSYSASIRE
T3 sequence (P31749 whole entry E17K): as the sequence (P31749 whole entry) above, with E17K counted along it

Turning to `Nc1ncccc1-c1nc2ccc(-c3ccn(C4COC4)n3)nc2n1-c1ccc2c(c1)CC[C@@H]2NC(=O)c1ccc(O)c(C=O)c1` [Example 171, N-[(1S)-5-[2-(2-aminopyridin-3-yl)-5-[1-(oxetan-3-yl)pyrazol-3-yl]imidazo[4,5-b]pyridin-3-yl]-2,3-dihydro-1H-inden-1-yl]-3-formyl-4-hydroxybenzamide], the IC50 at AKT1 WT fell in the range of 10 to 100 nM; at AKT2 it was 100 to 2000 nM; in experiment [1], 100 to 2000 nM; at AKT1 E17K it was 10 to 100 nM.

As for `Nc1ncccc1-c1nc2ccc(-n3ncc4cccnc43)nc2n1-c1ccc2c(c1)CC[C@@H]2NC(=O)c1cc(C=O)c(O)c(F)c1F` [Example 172, (S)—N-(5-(2-(2-aminopyridin-3-yl)-5-(1H-pyrazolo[3,4-b]pyridin-1-yl)-3H-imidazo[4,5-b]pyridin-3-yl)-2,3-dihydro-1H-inden-1-yl)-2,3-difluoro-5-formyl-4-hydroxybenzamide], the IC50 at AKT1 WT was 10 to 100 nM; on AKT2 it was 100 to 2000 nM; in experiment [1], 10 to 100 nM; on AKT1 E17K, 10 to 100 nM.

Regarding `Cc1nc(-c2ccc3nc(-c4cccnc4N)n(-c4ccc5c(c4)CC[C@@H]5NC(=O)c4ccc(O)c(C=O)c4)c3n2)no1` [Example 173, N-[(1S)-5-[2-(2-aminopyridin-3-yl)-5-(5-methyl-1,2,4-oxadiazol-3-yl)imidazo[4,5-b]pyridin-3-yl]-2,3-dihydro-1H-inden-1-yl]-3-formyl-4-hydroxybenzamide], the IC50 fell in the range of 10 to 100 nM on AKT1 WT, 100 to 2000 nM on AKT2, 100 to 2000 nM in experiment [1] and 10 to 100 nM at AKT1 E17K.

As for `Cc1cnc(-c2ccc3nc(-c4cccnc4N)n(-c4ccc5c(c4)CC[C@@H]5NC(=O)c4ccc(O)c(C=O)c4)c3n2)o1` [Example 174, N-[(1S)-5-[2-(2-aminopyridin-3-yl)-5-(5-methyl-1,3-oxazol-2-yl)imidazo[4,5-b]pyridin-3-yl]-2,3-dihydro-1H-inden-1-yl]-3-formyl-4-hydroxybenzamide], the IC50 was 10 to 100 nM on AKT1 WT, 100 to 2000 nM at AKT2, 100 to 2000 nM in experiment [1] and 10 to 100 nM at AKT1 E17K.

For the molecule `CN(C)c1nc2cc(C(=O)N[C@H]3CCc4cc(-n5c(-c6cccnc6N)nc6ccc(-n7cccn7)nc65)ccc43)cc(C=O)c2[nH]1` [Example 175, (S)—N-(5-(2-(2-aminopyridin-3-yl)-5-(1H-pyrazol-1-yl)-3H-imidazo[4,5-b]pyridin-3-yl)-2,3-dihydro-1H-inden-1-yl)-2-(dimethylamino)-7-formyl-1H-benzo[d]imidazole-5-carboxamide], the IC50 on AKT1 WT is below 10 nM; on AKT2 it was 10 to 100 nM; in experiment [1], below 10 nM; on AKT1 E17K, below 10 nM.

On to `Nc1ncccc1-c1nc2ccc(-c3ccccc3)nc2n1-c1ccc2c(c1)CC[C@@H]2NC(=O)c1cc(C=O)c(O)c(Cl)n1` [Example 176, (S)—N-(5-(2-(2-aminopyridin-3-yl)-5-phenyl-3H-imidazo[4,5-b]pyridin-3-yl)-2,3-dihydro-1H-inden-1-yl)-6-chloro-4-formyl-5-hydroxypicolinamide], for which the IC50 on AKT1 WT is 100 to 2000 nM; on AKT2, 100 to 2000 nM; in experiment [1], 100 to 2000 nM; on AKT1 E17K, 10 to 100 nM.

For `Nc1ncccc1-c1nc2ccc(-n3cccn3)nc2n1-c1ccc2c(c1)CC[C@@H]2N1CCc2cc(O)c(C=O)cc2C1=O` [Example 177, 2-[(1S)-5-[2-(2-aminopyridin-3-yl)-5-(pyrazol-1-yl)imidazo[4,5-b]pyridin-3-yl]-2,3-dihydro-1H-inden-1-yl]-6-hydroxy-1-oxo-3,4-dihydroisoquinoline-7-carbaldehyde], the IC50 on AKT1 WT was at least 2000 nM; at AKT2 it was 100 to 2000 nM; in experiment [1] it was at least 2000 nM; at AKT1 E17K it was at least 2000 nM.

As to `Cc1coc(-c2ccc3nc(-c4cccnc4N)n(-c4ccc5c(c4)CC[C@@H]5NC(=O)c4ccc(O)c(C=O)c4)c3n2)n1` [Example 178, N-[(1S)-5-[2-(2-aminopyridin-3-yl)-5-(4-methyl-1,3-oxazol-2-yl)imidazo[4,5-b]pyridin-3-yl]-2,3-dihydro-1H-inden-1-yl]-3-formyl-4-hydroxybenzamide], the IC50 on AKT1 WT is 10 to 100 nM; at AKT2, 100 to 2000 nM; in experiment [1], 10 to 100 nM; on AKT1 E17K, 10 to 100 nM.

`Cc1noc(-c2ccc3nc(-c4cccnc4N)n(-c4ccc5c(c4)CC[C@@H]5NC(=O)c4ccc(O)c(C=O)c4)c3n2)n1` [Example 179, N-[(1S)-5-[2-(2-aminopyridin-3-yl)-5-(3-methyl-1,2,4-oxadiazol-5-yl)imidazo[4,5-b]pyridin-3-yl]-2,3-dihydro-1H-inden-1-yl]-3-formyl-4-hydroxybenzamide]: the IC50 was in the range of 10 to 100 nM on AKT1 WT, 100 to 2000 nM at AKT2, 100 to 2000 nM in experiment [1] and 10 to 100 nM at AKT1 E17K.

For the molecule `Cc1cc(-c2nccs2)nc2c1nc(-c1cccnc1N)n2-c1ccc2c(c1)CC[C@@H]2NC(=O)c1ccc(O)c(C=O)c1` [Example 180, N-[(1S)-5-[2-(2-aminopyridin-3-yl)-7-methyl-5-(1,3-thiazol-2-yl)imidazo[4,5-b]pyridin-3-yl]-2,3-dihydro-1H-inden-1-yl]-3-formyl-4-hydroxybenzamide], the IC50 (at AKT1 WT; on AKT2; in experiment [1]; on AKT1 E17K) was 10 to 100 nM throughout.

As for `Cc1cc(-n2ccc(F)n2)nc2c1nc(-c1cccnc1N)n2-c1ccc2c(c1)CC[C@@H]2NC(=O)c1ccc(O)c(C=O)c1` [Example 181, (S)—N-(5-(2-(2-aminopyridin-3-yl)-5-(3-fluoro-1H-pyrazol-1-yl)-7-methyl-3H-imidazo[4,5-b]pyridin-3-yl)-2,3-dihydro-1H-inden-1-yl)-3-formyl-4-hydroxybenzamide], the IC50 is 10 to 100 nM on AKT1 WT, 100 to 2000 nM on AKT2, 100 to 2000 nM in experiment [1] and 10 to 100 nM on AKT1 E17K.

As for `COc1cc(C(=O)N[C@H]2CCc3cc(-n4c(-c5cccnc5N)nc5ccc(-n6cccn6)nc54)ccc32)cc(C=O)c1O` [Example 182, N-[(1S)-5-[2-(2-aminopyridin-3-yl)-5-(pyrazol-1-yl)imidazo[4,5-b]pyridin-3-yl]-2,3-dihydro-1H-inden-1-yl]-3-formyl-4-hydroxy-5-methoxybenzamide], the IC50 at AKT1 WT was 10 to 100 nM; at AKT2, 100 to 2000 nM; in experiment [1], 100 to 2000 nM; on AKT1 E17K it was 10 to 100 nM.

Turning to `[2H]C(=O)c1cc(C(=O)N[C@H]2CCc3cc(-n4c(-c5cccnc5N)nc5c(C)cc(-n6cccn6)nc54)ccc32)ccc1O` [Example 183, (S)—N-(5-(2-(2-aminopyridin-3-yl)-7-methyl-5-(1H-pyrazol-1-yl)-3H-imidazo[4,5-b]pyridin-3-yl)-2,3-dihydro-1H-inden-1-yl)-3-(formyl-d)-4-hydroxybenzamide], the IC50 lay in the range of 10 to 100 nM at AKT1 WT, 100 to 2000 nM at AKT2, 100 to 2000 nM in experiment [1] and 10 to 100 nM at AKT1 E17K.

As to `Nc1ncccc1-c1nc2ccc(-n3cccn3)nc2n1-c1ccc2c(c1)CC[C@@H]2n1cnc2cc(O)c(C=O)cc2c1=O` [Example 184, 3-[(1S)-5-[2-(2-aminopyridin-3-yl)-5-(pyrazol-1-yl)imidazo[4,5-b]pyridin-3-yl]-2,3-dihydro-1H-inden-1-yl]-7-hydroxy-4-oxoquinazoline-6-carbaldehyde], the IC50 at AKT1 WT was 10 to 100 nM; at AKT2, 100 to 2000 nM; in experiment [1] it was 10 to 100 nM; on AKT1 E17K it was 10 to 100 nM.

Consider `Cc1cnc(-c2ccc3nc(-c4cccnc4N)n(-c4ccc5c(c4)CC[C@@H]5NC(=O)c4cc(C=O)c(O)cc4F)c3n2)s1` [Example 185, N-[(1S)-5-[2-(2-aminopyridin-3-yl)-5-(5-methyl-1,3-thiazol-2-yl)imidazo[4,5-b]pyridin-3-yl]-2,3-dihydro-1H-inden-1-yl]-2-fluoro-5-formyl-4-hydroxybenzamide], for which the IC50 on AKT1 WT was 10 to 100 nM; on AKT2, 100 to 2000 nM; in experiment [1], 10 to 100 nM; on AKT1 E17K it was 10 to 100 nM.

On to `Cc1cnc(-c2ccc3nc(-c4cccnc4N)n(-c4ccc5c(c4)CC[C@@H]5NC(=O)c4cc(C=O)c(O)c(F)c4F)c3n2)s1` [Example 186, N-[(1S)-5-[2-(2-aminopyridin-3-yl)-5-(5-methyl-1,3-thiazol-2-yl)imidazo[4,5-b]pyridin-3-yl]-2,3-dihydro-1H-inden-1-yl]-2,3-difluoro-5-formyl-4-hydroxybenzamide], for which the IC50 was 10 to 100 nM at AKT1 WT, 100 to 2000 nM at AKT2, 10 to 100 nM in experiment [1] and 10 to 100 nM at AKT1 E17K.

For the molecule `Nc1ncccc1-c1nc2ccc(-n3cccn3)nc2n1-c1cc(F)c2c(c1)CC[C@@H]2NC(=O)c1ccc(O)c(C=O)c1` [Example 189, N-[(1S)-5-[2-(2-aminopyridin-3-yl)-5-(pyrazol-1-yl)imidazo[4,5-b]pyridin-3-yl]-7-fluoro-2,3-dihydro-1H-inden-1-yl]-3-formyl-4-hydroxybenzamide], the IC50 on AKT1 WT is 100 to 2000 nM; on AKT2, at least 2000 nM; in experiment [1] it was at least 2000 nM; on AKT1 E17K it was 100 to 2000 nM.

For `[2H]C(=O)c1cc(C(=O)N[C@H]2CCc3cc(-n4c(-c5cccnc5N)nc5ccc(-n6ccc(F)n6)nc54)ccc32)ccc1O` [Example 190, (S)—N-(5-(2-(2-aminopyridin-3-yl)-5-(3-fluoro-1H-pyrazol-1-yl)-3H-imidazo[4,5-b]pyridin-3-yl)-2,3-dihydro-1-H-inden-1-yl)-3-(formyl-d)-4-hydroxybenzamide], the IC50 was in the range of 100 to 2000 nM on AKT1 WT, 100 to 2000 nM on AKT2, 100 to 2000 nM in experiment [1] and 10 to 100 nM on AKT1 E17K.
